According to PubChem BioAssay AID2771 (The Scripps Research Institute Molecular Screening Center, 2010):
Active and inactive are the calls of the source. No rule for the calls is given here.

These compounds were tested against Signal transducer and activator of transcription 3 (Homo sapiens) (UniProt P40763) (assay: STAT3 inhibitors in luciferase reporter cells, late-stage follow-up, counter-screen for STAT1 inhibitor project, cell-based, luminescence, dose response (AID 2771)). Details: STAT3-responsive luciferase reporter cells.

Row | IC50 | SMILES
1 | > 55.7 µM (inactive) | O=C(c1ccc(-n2c(=S)[nH]c3ccccc3c2=O)cc1)N1CCN(C2CCCCC2)CC1
2 | > 55.7 µM (inactive) | Cc1ccc(C)c(S(=O)(=O)N2CCN(C(C(=O)Nc3ccc(F)cc3)c3ccccc3)CC2)c1 (centres undefined)
3 | > 55.7 µM (inactive) | O=C1c2ccccc2N/C(=C\N2CCOCC2)N1Cc1nc(-c2ccccc2F)cs1
4 | > 55.7 µM (inactive) | O=C(Nc1ccc(F)cc1)C(c1ccccc1)N1CCN(S(=O)(=O)c2ccc3c(c2)OCCO3)CC1 (centres undefined)
5 | > 55.7 µM (inactive) | CN(C)Cc1nc2ccccc2c(=O)n1Cc1nc(-c2cccc([N+](=O)[O-])c2)cs1
6 | > 55.7 µM (inactive) | CN(Cc1ccccc1N1CCCC1)C(=O)c1nn(-c2ccccc2)c(=O)c2ccccc12
7 | > 55.7 µM (inactive) | Cc1ccc(-n2nc(C(=O)O)c3ccccc3c2=O)cc1C
8 | > 55.7 µM (inactive) | O=c1cc(CSc2nc3ccccc3c(=O)[nH]2)c2ccc(O)cc2o1
9 | > 55.7 µM (inactive) | COc1ccc(C)cc1NC(=O)C(c1ccccc1)N1CCN(S(=O)(=O)c2ccc(F)cc2)CC1 (centres undefined)
10 | > 55.7 µM (inactive) | COc1cccc(-c2csc(Cn3c(CN4CCOCC4)nc4ccccc4c3=O)n2)c1
11 | > 55.7 µM (inactive) | COC(=O)c1nn(-c2ccc(F)cc2)c(=O)c2ccccc12
12 | > 55.7 µM (inactive) | CCOC(=O)c1ccc(S(=O)(=O)N2CCN(C(C(=O)Nc3ccc(OC)c(Cl)c3)c3ccccc3)CC2)cc1 (centres undefined)
13 | > 55.7 µM (inactive) | CN1CCN(C=C2Nc3ccccc3C(=O)N2Cc2nc(C34CC5CC(CC(C5)C3)C4)cs2)CC1
14 | > 55.7 µM (inactive) | Cc1ccc2oc(=O)cc(CSc3nc(-c4ccccc4)c4ccccc4n3)c2c1
15 | > 55.7 µM (inactive) | COc1cccc(NC(=O)C(c2ccccc2)N2CCN(S(=O)(=O)c3ccc(C)cc3)CC2)c1 (centres undefined)
16 | inactive | COc1cc2c(cc1OC)C(=O)N(Cc1cc(-c3ccccc3OC)no1)C(=CN1CCOCC1)N2
17 | > 55.7 µM (inactive) | CCOC(=O)Nc1ccc2c(CSc3nc4ccccc4c(=O)[nH]3)cc(=O)oc2c1
18 | > 18.6 µM (inactive) | O=C1c2ccccc2N/C(=C\N2CCOCC2)N1Cc1nc(-c2ccc(F)c(F)c2)cs1

The next lines start with the compound.

Row | SMILES | IC50
19 | CC(=O)c1ccc(S(=O)(=O)N2CCN(C(C(=O)Nc3ccc(C)cc3)c3ccccc3)CC2)cc1 (centres undefined) | > 55.7 µM (inactive)
20 | CN(C)C(=O)c1nn(-c2ccc(F)cc2)c(=O)c2ccccc12 | > 55.7 µM (inactive)
21 | CCC(C)c1ccc(-c2csc(CN3C(=O)c4ccccc4N/C3=C\N3CCN(C)CC3)n2)cc1 (centres undefined) | > 55.7 µM (inactive)
22 | COc1cc2c(cc1OC)C(=O)N(Cc1coc(-c3ccccc3)n1)C(=CN1CCOCC1)N2 | > 55.7 µM (inactive)
23 | CN1CCN(Cc2nc3ccccc3c(=O)n2Cc2nc(-c3cccc([N+](=O)[O-])c3)cs2)CC1 | > 55.7 µM (inactive)
24 | COc1ccc(N2CCN(C(=O)c3ccc(-n4c(=S)[nH]c5ccccc5c4=O)cc3)CC2)cc1 | > 55.7 µM (inactive)
25 | O=c1c2ccccc2nc(CN2CCOCC2)n1Cc1nc(-c2ccc[nH]2)cs1 | > 55.7 µM (inactive)
26 | Cc1ccc(-n2nc(C(=O)O)c3ccccc3c2=O)cc1Cl | > 55.7 µM (inactive)
27 | O=C(c1ccc(-n2c(=S)[nH]c3ccccc3c2=O)cc1)N1CCN(c2ccc(F)cc2)CC1 | > 55.7 µM (inactive)
28 | O=C(c1ccc(-n2c(=S)[nH]c3ccccc3c2=O)cc1)N1CCN(C(=O)c2ccco2)CC1 | > 55.7 µM (inactive)
29 | CC(C(=O)Nc1ccccc1)N1CCN(S(=O)(=O)c2ccccc2)CC1 (centres undefined) | > 55.7 µM (inactive)
30 | O=C(OCC1CCCCC1)c1nn(-c2ccccc2)c(=O)c2ccccc12 | > 55.7 µM (inactive)
31 | CC(C(=O)Nc1ccc(F)c(F)c1)N1CCN(S(=O)(=O)c2ccc(C(F)(F)F)cc2)CC1 (centres undefined) | > 18.6 µM (inactive)
32 | O=C(Nc1ccc(Cl)c(C(F)(F)F)c1)C(c1ccccc1)N1CCN(S(=O)(=O)c2ccccc2)CC1 (centres undefined) | > 55.7 µM (inactive)
33 | O=C(c1ccc(-n2c(=S)[nH]c3ccccc3c2=O)cc1)N1CCN(c2ccccc2)CC1 | > 55.7 µM (inactive)
34 | N#Cc1ccccc1S(=O)(=O)N1CCN(C(C(=O)Nc2ccc(F)cc2)c2ccccc2)CC1 (centres undefined) | > 55.7 µM (inactive)
35 | CCOc1ccccc1NC(=O)C(c1ccccc1)N1CCN(S(=O)(=O)c2ccc(F)c(F)c2F)CC1 (centres undefined) | > 55.7 µM (inactive)
36 | CN1CCN(C(=O)c2ccc(-n3c(=S)[nH]c4ccccc4c3=O)cc2)CC1 | > 55.7 µM (inactive)

Row | SMILES | IC50
37 | O=C(Nc1ccc(F)cc1)C(c1ccccc1)N1CCN(S(=O)(=O)c2ccc3ccccc3c2)CC1 (centres undefined) | > 55.7 µM (inactive)
38 | Cc1ccc(C)c(NC(=O)C(c2ccccc2)N2CCN(S(=O)(=O)c3ccccc3C#N)CC2)c1 (centres undefined) | > 55.7 µM (inactive)
39 | N#Cc1ccc(S(=O)(=O)N2CCN(C(C(=O)Nc3ccc(F)cc3)c3ccccc3)CC2)cc1 (centres undefined) | > 55.7 µM (inactive)
40 | O=C(Nc1ccc(F)cc1)C(c1ccccc1)N1CCN(S(=O)(=O)c2ccccc2)CC1 (centres undefined) | > 55.7 µM (inactive)
41 | NC(=O)c1ccc(S(=O)(=O)N2CCN(C(C(=O)Nc3ccc(F)cc3)c3ccccc3)CC2)cc1 (centres undefined) | > 55.7 µM (inactive)
42 | O=C(Nc1ccc(F)cc1)C(c1ccccc1)N1CCN(C(=O)c2ccccc2)CC1 (centres undefined) | > 55.7 µM (inactive)
43 | COc1cc2c(cc1OC)C(=O)N(Cc1nnc(-c3ccc(Cl)cc3)o1)C(=CN1CCOCC1)N2 | > 55.7 µM (inactive)
44 | CCOc1ccc(-c2csc(Cn3c(CN4CCN(C)CC4)nc4ccccc4c3=O)n2)cc1 | > 55.7 µM (inactive)
45 | CCC(C(=O)Nc1ccccc1)N1CCN(S(=O)(=O)c2ccc3c(c2)CCC3)CC1 (centres undefined) | > 55.7 µM (inactive)
46 | Cc1cc2oc(=O)cc(CSc3nc4ccccc4c(=O)[nH]3)c2cc1Cl | > 55.7 µM (inactive)
47 | CNC(=O)c1nn(-c2ccc(F)cc2)c(=O)c2ccccc12 | > 55.7 µM (inactive)
48 | O=C(O)c1nn(-c2ccc(F)cc2)c(=O)c2ccccc12 | > 55.7 µM (inactive)
49 | CN(C)Cc1nc2ccccc2c(=O)n1Cc1nc(C(C)(C)C)cs1 | > 55.7 µM (inactive)
50 | CN1CCN(Cc2nc3ccccc3c(=O)n2Cc2nc(-c3ccccc3F)cs2)CC1 | > 55.7 µM (inactive)
51 | Cc1ccc(NC(=O)C(c2ccccc2)N2CCN(S(=O)(=O)c3ccccc3)CC2)cc1 (centres undefined) | > 55.7 µM (inactive)
52 | CCOC(=O)N1CCN(C(=O)c2ccc(-n3c(=S)[nH]c4ccccc4c3=O)cc2)CC1 | > 55.7 µM (inactive)
53 | CCOc1ccc2oc(=O)cc(CSc3nc4ccccc4c(=O)[nH]3)c2c1 | > 55.7 µM (inactive)
54 | C=C1NN(c2ccc(C(=O)N3CCC(Cc4ccccc4)CC3)cc2)C(=O)c2ccccc21 | inactive
